For series [1], the target named is T1, RAP74-CTD (Homo sapiens, UniProt P35269).
T1 construct: spanning residues 450-517; His6-MBP (with TEV site) (N, cleaved yes); made in house; host or cells: E. coli Rosetta (DE3)pLysS
T1 sequence (P35269 450-517): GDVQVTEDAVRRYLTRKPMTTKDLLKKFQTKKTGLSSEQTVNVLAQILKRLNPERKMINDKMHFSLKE
As to the kind of experiment: NMR chemical shift perturbation titration of peptides into 15N RAP74-CTD (KD). The format is binding. Conditions: 298 K, pH 7.4; for Kd: 1H-15N BEST-TROSY CSP titration, 15N RAP74-CTD 50 μM, read-out: NMR-derived KD; for KD range in words: NMR CSP titration, RAP74-CTD 50 μM. As to the method: Recombinant samples with ^15N isotope enrichment of the C-terminal domain of subunit 1 of the general transcription regulator TFIIF (RAP74-CTD), spanning residues 450-517, were obtained as described previously. A codon-optimized synthetic gene cloned in a pDONR221 vector was obtained from GeneArt (Thermo Fisher Scientific, Waltham, MA, USA) and subcloned into a pDEST-His6MBP vector obtained from Addgene. Rosetta (DE3)pLysS competent cells (Novagen, Merck KGaA, Darmstadt, Germany) were grown in MOPS medium with ^15NH4Cl as the only nitrogen source (310 K, induction at OD600 = 0.7, 1 mM IPTG, harvesting 3 h after induction). Soluble fractions of cell lysates from sonication in lysis buffer (50 mM Tris-HCl, 1 M NaCl, 10 mM imidazole, pH 8.0) were purified by IMAC, and fractions containing the His6MBP-TEV-RAP74-CTD fusion were dialyzed at 277 K overnight against cleavage buffer (50 mM Tris-HCl, 200 mM NaCl, 0.5 mM EDTA, pH 8.0) in the presence of TEV protease (50 μg/mL). A second IMAC step was performed and the flow-through containing the RAP-CTD was loaded onto a HiTrap SP HP cation exchange column followed by a size exclusion chromatography step on a Superdex 75 GL 10/300 column equilibrated with NMR buffer (20 mM sodium phosphate, 0.1% trifluoroacetic acid, pH 7.4), both mounted in an Äkta Purifier System (GE Healthcare, Chicago, IL, USA). The sample was concentrated to 100 μM using an Amicon Ultra 15 mL centrifugal filter (Merck KGaA, Darmstadt, Germany).
Before the experiment, both the protein and the peptide were dialyzed (277 K, two dialysis steps) in the same preparation of NMR buffer (20 mM sodium phosphate, 0.1% trifluoroacetic acid, pH 7.4), using a Pur-A-Lyzer (Sigma-Aldrich, Burlington, MA, USA) and a Micro Float-A-Lyzer (Spectrum Laboratories, San Francisco, CA, USA) respectively. The chemical shift assignment of RAP74-CTD was reported previously (BMRB code 27288). Averaged ^1H and ^15N chemical shift perturbations (CSPs) were calculated as:2 ΔδAV=(Δδ1H)^2+1/5Δδ15N^2
Dissociation constants, KD, and averaged CSP amplitude, Δδmax, for δ, δstpl, γ and γstpl peptide binding to RAP74-CTD were obtained by a global fitting (nonlinear regression) of the 10% peaks with the largest averaged CSPs to the following single-site binding model (1:1 stoichiometry):3 Δδ=Δδmax([Protein]+[Peptide]+KD)−([Protein]+[Peptide]+KD)^2−4[Protein][Peptide]/2[Protein]

Series [2] can be described thus: Peptide stability in human serum. As to conditions: for peptide in human serum over time, mean / remaining at 0.08 h, 300 μM / remaining at 0.25 h, 300 μM / remaining at 0.5 h, 300 μM / remaining at 1 h, 300 μM / remaining at 4 h, 300 μM / remaining at 6 h, 300 μM / remaining at 8 h, 300 μM / remaining at 24 h, 300 μM: SD, human serum, mean; for peptide in human serum over time, mean: in % (unit assumed); for remaining at 0.08 h, 300 μM: Time 0.08 (time unit inferred); for remaining at 0.08 h, 300 μM / remaining at 0.25 h, 300 μM / remaining at 0.5 h, 300 μM / remaining at 1 h, 300 μM / remaining at 4 h, 300 μM / remaining at 6 h, 300 μM / remaining at 8 h, 300 μM / remaining at 24 h, 300 μM: read-out: peptide in human serum over time, mean; for remaining at 0.25 h, 300 μM: Time 0.25 (time unit inferred); for remaining at 0.5 h, 300 μM: Time 0.50 (time unit inferred); for remaining at 1 h, 300 μM: Time 1.00 (time unit inferred); for remaining at 4 h, 300 μM: Time 4.00 (time unit inferred); for remaining at 6 h, 300 μM: Time 6.00 (time unit inferred); for remaining at 8 h, 300 μM: Time 8.00 (time unit inferred); for remaining at 24 h, 300 μM: Time 24.00 (time unit inferred); for half-life at 300 μM: human serum (Sigma-Aldrich), 1.5 mM peptide in 20 mM sodium phosphate pH 7.4 diluted 1:9, final 300 μM, 310 K, 24 h, methanol precipitation, HPLC peak area of intact peptide vs t = 0, three independent replicates. The format is in vitro ADME. As to the method:
Supplementary Figure 2 | Stability in human serum and internalization in human cells of peptides (P3-7)3 and (P3-7)3 Ctrl. a Human serum stability assay of peptides (P3-7)3, (P3-7)3 Ctrl and Angiopep-2 (sequence:
, a positive control for this assay 1), measured at increasing time points by monitoring the area of the HPLC peak corresponding to the intact peptide over the area of the same peak at t = […]
Peptide stability in human serum
1.5 mM solutions of the P(3-7)3, P(3-7)3 Ctrl and Angiopep-2 peptides were prepared as detailed above in 20 mM sodium phosphate, pH 7.4 and diluted in human serum (Sigma-Aldrich, Burlington, MA, USA) (1:9 dilution) to a final concentration of 300 μM. The incubation was performed at 310 K for 24 h, taking aliquots of 50 μL at several time points.
These samples were treated with 400 μL of methanol to precipitate the serum proteins and centrifuged for 30 min at 277 K. The supernatant was filtered and analyzed by HPLC to calculate the percentage of intact peptide in the sample. HPLC chromatograms were obtained on an Agilent 1260 Infinity II system with a PDA detector, with an Agilent Poroshell 120-EC18 (50 x 3 mm x 2.7 μm) column. The flow rate was 1 mL min-1 and acetonitrile (1% TFA) and water (1% TFA) were used as solvents, with 4 minute linear gradients from 5 % to 95 % of acetonitrile thermostated at 313 K. […]

[3] abbreviates: Time 0.00 (time unit not given).

Read-outs that look alike come from different tables or passages of the source. Starred links: 1 amine or outer side, 2 acyl side, 3 side chain; linkers in the order of their positions; H or OH if unused. Positions of bridges follow the written chain, without caps; N, C: chain ends. Non-standard residues stand in square brackets, D forms with d. Residues, ends and D or L forms follow the SMILES beside them. No end group written: not given here. ξ: configuration not given here. ξαMeNle(6-ylidene) = CC(CCCC=[*:3])(N[*:1])C(=O)[*:2]

With KKPGASAAAAQEAQLAQLAQELQAAQAAKKY [δctrl], the Kd (as a rule, the free concentration of one partner at which half of the binding sites on the other are occupied at equilibrium, for simple one-to-one binding) in series [1] (lower bound) was above 1000 µM.

For the molecule KKPGASLSWLQLFQEEQAAQAAKK [γ], in series [1], the “KD range in words” value was “mid-micromolar range”.

In the case of `CC(C)C[C@@H]1NC(=O)[C@H](CCC(N)=O)NC(=O)C(C)(NC(=O)[C@H](CCC(=O)O)NC(=O)[C@H](CCC(N)=O)NC(=O)[C@H](C)NC(=O)[C@H](C)NC(=O)[C@H](C)NC(=O)[C@H](C)NC(=O)[C@H](CO)NC(=O)[C@H](C)NC(=O)CNC(=O)[C@@H]2CCCN2C(=O)[C@H](CCCCN)NC(=O)[C@@H](N)CCCCN)CCCC=CCCCC(C)(C(=O)N[C@@H](CC(C)C)C(=O)N[C@@H](C)C(=O)N[C@@H](CCC(N)=O)C(=O)N[C@@H](CCC(=O)O)C(=O)N[C@@H](CC(C)C)C(=O)N[C@@H](CCC(N)=O)C(=O)N[C@@H](C)C(=O)N[C@@H](C)C(=O)N[C@@H](CCC(N)=O)C(=O)N[C@@H](C)C(=O)N[C@@H](C)C(=O)N[C@@H](CCCCN)C(=O)N[C@@H](CCCCN)C(=O)N[C@@H](Cc2ccc(O)cc2)C(=O)O)NC(=O)[C@H](C)NC1=O` (stereo partly drawn) [δStpl] (H-KKPGASAAAAQE[ξαMeNle(6-ylidene)]QLA[ξαMeNle(6-ylidene)]LAQELQAAQAAKKY-OH; staple 13-17; N-terminus and C-terminus assumed), the “KD range in words” value in series [1] is reported as “millimolar range”.

As for `CC(C)C[C@@H]1NC(=O)[C@H](CCC(N)=O)NC(=O)C(C)(NC(=O)[C@H](Cc2c[nH]c3ccccc23)NC(=O)[C@H](CO)NC(=O)[C@H](C)NC(=O)[C@H](CO)NC(=O)[C@H](C)NC(=O)CNC(=O)[C@@H]2CCCN2C(=O)[C@H](CCCCN)NC(=O)[C@@H](N)CCCCN)CCCC=CCCCC(C)(C(=O)N[C@@H](CCC(=O)O)C(=O)N[C@@H](CCC(=O)O)C(=O)N[C@@H](CCC(N)=O)C(=O)N[C@@H](C)C(=O)N[C@@H](C)C(=O)N[C@@H](CCC(N)=O)C(=O)N[C@@H](C)C(=O)N[C@@H](C)C(=O)N[C@@H](CCCCN)C(=O)N[C@@H](CCCCN)C(=O)O)NC(=O)[C@H](Cc2ccccc2)NC1=O` (stereo partly drawn) [γStpl], the “KD range in words” value in series [1] is listed as “mid-micromolar range”.

On to “SAAASSSWHTLFTAEEGQLYG [WHTLF, reference compound]”, for which the Kd in series [1] (lower bound) is above 1000 µM.

For the molecule “KKPGASAAAAQAAQAAQAAQAAQAAQAAKKY [(P3-7)3 Ctrl]”, in series [2] (setting [3]), the “peptide in human serum over time, mean” value is 100.26. In addition, in series [2], the remaining at 0.08 h, 300 μM is 96.4%; the remaining at 0.25 h, 300 μM was 97.3%; the remaining at 0.5 h, 300 μM stood at 114%; the remaining at 1 h, 300 μM was determined as 115%. Also, in series [2], the remaining at 4 h, 300 μM is 94.5%; the remaining at 6 h, 300 μM amounted to 115%; the remaining at 8 h, 300 μM is 98.4%; the remaining at 24 h, 300 μM was found to be 110%. Besides, the half-life (as a rule, how long it takes for the measured level to halve) at 300 μM in series [2] was above 24 h.

Regarding `C[C@@H](O)[C@H](N)C(=O)N[C@@H](Cc1ccccc1)C(=O)N[C@@H](Cc1ccccc1)C(=O)N[C@@H](Cc1ccc(O)cc1)C(=O)NCC(=O)NCC(=O)N[C@@H](CO)C(=O)N[C@@H](CCCNC(=N)N)C(=O)NCC(=O)N[C@@H](CCCCN)C(=O)N[C@@H](CCCNC(=N)N)C(=O)N[C@@H](CC(N)=O)C(=O)N[C@@H](CC(N)=O)C(=O)N[C@@H](Cc1ccccc1)C(=O)N[C@@H](CCCCN)C(=O)N[C@H](C(=O)N[C@@H](CCC(=O)O)C(=O)N[C@@H](CCC(=O)O)C(=O)N[C@@H](Cc1ccc(O)cc1)C(=O)O)[C@@H](C)O` [Angiopep-2, reference compound], the “peptide in human serum over time, mean” value in series [2] (setting [3]) was 100.01. In series [2], the remaining at 0.08 h, 300 μM stood at 52%; the remaining at 0.25 h, 300 μM worked out at 72.6%; the remaining at 0.5 h, 300 μM turned out to be 32.2%; the remaining at 1 h, 300 μM stood at 73.3%. Also, in series [2], the remaining at 4 h, 300 μM came to 24.9%; the remaining at 6 h, 300 μM is 16.7%; the remaining at 8 h, 300 μM is 18.3%; the remaining at 24 h, 300 μM was 22.5%.

KKPGASLAALQELQLLQLLQELQAAQAAKKY [δ]: the Kd in series [1] (20 mM sodium phosphate, 0.1% TFA, global fit of 10% peaks with largest CSPs, 1:1 model, error by Monte-Carlo) was 131 ± 20 µM.

Regarding KKPGASASWAQLFQEEQAAQAAKK [γCtrl], the Kd in series [1] (lower bound) was above 1000 µM.

On to “KKPGASLAALQALQALQALQALQAAQAAKKY [(P3-7)3]”, for which the Kd in series [1] (lower bound) is above 1000 µM. In addition, in series [2], the remaining at 0.08 h, 300 μM came out at 113%; the remaining at 0.25 h, 300 μM is 120%; the remaining at 6 h, 300 μM turned out to be 103%; the remaining at 8 h, 300 μM was 86.3%. The same molecule registered a half-life at 300 μM in series [2] above 24 h. The “peptide in human serum over time, mean” value in series [2] (Time 0.50 (time unit not given)) is listed as 137.50. In series [2] (Time 1.00 (time unit not given)), the “peptide in human serum over time, mean” value worked out at 122.97. In addition, the “peptide in human serum over time, mean” value in series [2] (Time 4.00 (time unit not given)) is recorded as 139.36. Besides, in series [2] (Time 24.00 (time unit not given)), the “peptide in human serum over time, mean” value is on record as 128.28.

The record behind these values is paper PMC9674830, “A glutamine-based single α-helix scaffold to target globular proteins” (Nature Communications, 2022).
